Values after ≈ are worked out from the molar mass of the structure shown.
Tests used:
[1] = tested on: MV-4-11 (biphenotypic B myelomonocytic leukaemia) cell line; experiment: MTT antiproliferative assay on MV-4-11 cells; format: cell-based, human; details: for IC50: Homo sapiens, MV4-11
Protocol: (§1) The applied human cell lines such as MV-4-11 (biphenotypic B myelomonocytic leukaemia), A549 (lung adenocarcinoma), Du-145 (prostate), Hs294T (melanoma), MCF-7 (breast adenocarcinoma) and MCF-10A (normal mammary gland) were obtained from the American Type Culture Collection (ATCC, Rockville, MD, USA). The all cell lines are maintained at the Cell Culture Collection of the Institute of Immunology and Experimental Therapy (Wrocław, Poland). The cells were plated in 96-well plates (Sarstedt, Newton, MA, USA) at a density of 1 × 10^4 cells per well in 100 µL of appropriate culture medium overnight. Biphenotypic B myelomonocytic leukaemia (MV-4-11) cells were cultured in RPMI 1640 medium (Gibco, Scotland, UK) with GlutaMAX (Thermo-Fisher Scientific, Warsaw, Poland) adjusted to contain 1.0 mM sodium pyruvate (Sigma-Aldrich, Chemie GmbH, Steinheim, Germany). Human lung adenocarcinoma (A549) cells were cultured in mixture RPMI 1640 and Opti-MEM medium (Gibco, Scotland, UK) supplemented with GlutaMAX (ThermoFisher Scientific, Warsaw, Poland) and 2mM L-glutamine adjusted to contain 1.0 mM sodium pyruvate. Human prostate (Du-145) and human breast adenocarcinoma (MCF-7) cells were cultured in Eagle medium (IIET, Wrocław, Poland), supplemented with 2 mM L-glutamine adjusted to contain 1.0 mM sodium pyruvate. Human melanoma (Hs294T) cells were cultured in Dulbecco medium (Gibco, Scotland, UK) supplemented with 2 mM L-glutamine. The normal human mammary gland cells (MCF-10A) were cultured in Ham’s F-12 medium containing 2 mM L-glutamine, 5% horse serum, epidermal growth factor EGF (100 μL/100 mL of medium), hydrocortisone (1 mL/ 100 mL of medium), insulin (100 μL/100 mL of medium) and cholera toxin (0.1 mL/100 mL of medium). All applied culture media except MCF-10A were supplemented with 10% of FBS (MV-4-11 cultured with FBS derived from Sigma-Aldrich, Chemie GmbH, Steinheim, Germany, the other cell lines FBS HyClone Thermo-Fisher Scientific, Warsaw, Poland) and streptomycin (100 µg/mL), penicillin (100 U/mL) (both from Polfa, Tarchomin, Poland). The tested cell lines were grown at 37 °C in humid atmosphere saturated with 5% CO2. In our studies were used two assays for determination the cytotoxic activity in vitro of triterpene derivatives. By dissolving 1 mg of each tested compound in 100 µL of DMSO, stock solutions at a 10 mg/mL were obtained. Next, the stock solutions were diluted in appropriate culture medium to reach the required concentrations of compounds ranging from 0.1 to 100 µg/mL. The MTT assay was used for the cytotoxicity screening against biphenotypic B myelomonocytic leukaemia (MV-4-11). The SRB assay was performed for adherent cells such as A549, Du-145, Hs294T, MCF-7 and MCF-10A. Both assays were carried as described by Wietrzyk et al.. The triterpenes in given concentration were examined in triplicates in each experiment, which was repeated 3 times. The results of anticancer activity in vitro were presented as an IC50 in µM. Cisplatin and betulin 1 were used as reference substances.

[2] = tested on: A549 (lung adenocarcinoma); experiment: SRB antiproliferative assay on A549 cells; format: cell-based, human; details: Homo sapiens, A549
Protocol: as §1

[3] = tested on: MCF-10A (normal mammary gland); experiment: SRB antiproliferative assay on MCF-10A cells; format: cell-based, human; details: Neg = negative in the concentration used
Protocol: as §1

Hs294T (melanoma) = experiment: SRB antiproliferative assay on Hs294T cells; format: cell-based, human; details: Homo sapiens, Hs 294T; SRB assay
Protocol: as §1

[4] = tested on: MCF-7 (breast adenocarcinoma); experiment: SRB antiproliferative assay on MCF-7 cells; format: cell-based, human; details: Homo sapiens, MCF7; SRB assay
Protocol: as §1

Du-145 (prostate) = experiment: SRB antiproliferative assay on Du-145 cells; format: cell-based, human; details: Homo sapiens, DU-145; SRB assay
Protocol: as §1

[5] = tested on: PC-3, Jurkat, HeLa, HepG2 and HT-29; design: method as in PMID 20494586; details: range over PC-3, Jurkat, HepG2, HT-29, read-out: IC50 in the tested cancer cell lines; cited from earlier work
lung A549 cell line = tested on: lung A549 cell line; design: method as in PMID 20460723; details: cited from earlier work
[6] = design: method as in PMID 17851638; details: cited from earlier work
[7] = tested on: MCF-7/ADR cells (multidrug-resistant breast cancer); design: method as in PMID 25817774; details: read-out: IC50 towards MCF-7/ADR cells; cited from earlier work
[8] = MTT assay, Neg = negative in the concentration used

C#CCOC(=O)O[C@H]1CC[C@@]2(C)C(CC[C@]3(C)C2CCC2C4C(C(=C)C)CC[C@]4(CO)CC[C@]23C)C1(C)C (some centres unmarked) [Compound 13, 3-Propargyloxycarbonylbetulin]
IC50 [1, 8]: 7.4 ± 1.7 µM
IC50 [2]: 14.9 ± 2.5 µM
Antiproliferative Activity IC50 MCF-10A [3]: Neg
IC50 (Hs294T (melanoma)): 82.7 ± 8.4 µM
IC50 [4]: 28.9 ± 4.6 µM
IC50 (Du-145 (prostate)): 95.1 ± 16.8 µM

C#CCCOC(=O)O[C@H]1CC[C@@]2(C)C(CC[C@]3(C)C2CCC2C4C(C(=C)C)CC[C@]4(CO)CC[C@]23C)C1(C)C (some centres unmarked) [Compound 14, 3-(3-Butynyloxycarbonyl)betulin]
IC50 [1, 8]: 8.9 ± 0.9 µM
IC50 [2]: 33.8 ± 2.8 µM
Antiproliferative Activity IC50 MCF-10A [3]: Neg
IC50 (Hs294T (melanoma)): 164 ± 15.8 µM
IC50 [4]: 39.2 ± 6.9 µM
IC50 (Du-145 (prostate)): 126 ± 13.2 µM

C=C(C)C1CC[C@]2(C=O)CC[C@]3(C)C(CCC4[C@@]5(C)CC[C@H](OC(=O)CC)C(C)(C)C5CC[C@]43C)C12 (some centres unmarked) [Compound 15, 3-Propanoylbetulinic aldehyde]
IC50 [1, 8]: 71.8 ± 22.9 µM

C=CC(=O)O[C@H]1CC[C@@]2(C)C(CC[C@]3(C)C2CCC2C4C(C(=C)C)CC[C@]4(C=O)CC[C@]23C)C1(C)C (some centres unmarked) [Compound 16, 3-(2-Propenoyl)betulinic aldehyde]
IC50 [1, 8]: 5.8 ± 1.8 µM
fold more potent than 3-acetylbetulinic aldehyde 3 against MV-4-11 ([1]; MV-4-11 cells): 6 fold
IC50 [2]: 15.1 ± 5 µM
IC50 ([3]; Homo sapiens, MCF-10A): 113 ± 11.7 µM
IC50 (Hs294T (melanoma)): 74.4 ± 7.3 µM
IC50 [4]: 60.4 ± 4.4 µM
IC50 (Du-145 (prostate)): 67.1 ± 4.6 µM

C=C(C)C1CC[C@]2(C=O)CC[C@]3(C)C(CCC4[C@@]5(C)CC[C@H](OC(=O)C#CC6CC6)C(C)(C)C5CC[C@]43C)C12 (some centres unmarked) [Compound 17, 3-(3-Cyclopropyl-2-propynoyl)betulinic aldehyde]
IC50 [1, 8]: 86.7 ± 42.8 µM

C=C(C)C1CC[C@]2(C=O)CC[C@]3(C)C(CCC4[C@@]5(C)CC[C@H](OC(=O)C#Cc6ccccc6)C(C)(C)C5CC[C@]43C)C12 (some centres unmarked) [Compound 18, 3-Phenylpropynoylbetulinic aldehyde]
MV-4-11 IC50 [1, 8]: Neg

C=C(C)C1CC[C@]2(C=O)CC[C@]3(C)C(CCC4[C@@]5(C)CC[C@H](OC(=O)C#CC)C(C)(C)C5CC[C@]43C)C12 (some centres unmarked) [Compound 19, 3-(2-Butynoyl)betulinic aldehyde]
IC50 [1, 8]: 35.9 ± 4.9 µM

C=C(C)C1CC[C@]2(C=O)CC[C@]3(C)C(CCC4[C@@]5(C)CC[C@H](OC(=O)OCC)C(C)(C)C5CC[C@]43C)C12 (some centres unmarked) [Compound 20, 3-Ethoxycarbonylbetulinic aldehyde]
IC50 [1, 8]: 25.1 ± 7.2 µM

C=C(C)C1CC[C@]2(C=O)CC[C@]3(C)C(CCC4[C@@]5(C)CC[C@H](OC(=O)OCCC)C(C)(C)C5CC[C@]43C)C12 (some centres unmarked) [Compound 21, 3-Propoxycarbonylbetulinic aldehyde]
IC50 [1, 8]: 80.2 ± 14.4 µM

C=CCOC(=O)O[C@H]1CC[C@@]2(C)C(CC[C@]3(C)C2CCC2C4C(C(=C)C)CC[C@]4(C=O)CC[C@]23C)C1(C)C (some centres unmarked) [Compound 22, 3-Allyloxycarbonylbetulinic aldehyde]
IC50 [1, 8]: 38.3 ± 4.6 µM

C#CCOC(=O)O[C@H]1CC[C@@]2(C)C(CC[C@]3(C)C2CCC2C4C(C(=C)C)CC[C@]4(C=O)CC[C@]23C)C1(C)C (some centres unmarked) [Compound 23, 3-Propargyloxycarbonylbetulinic aldehyde]
IC50 [1, 8]: 30 ± 6.1 µM

C#CCCOC(=O)O[C@H]1CC[C@@]2(C)C(CC[C@]3(C)C2CCC2C4C(C(=C)C)CC[C@]4(C=O)CC[C@]23C)C1(C)C (some centres unmarked) [Compound 24, 3-(3-Butynyloxycarbonyl)betulinic aldehyde]
IC50 [1, 8]: 28.3 ± 7.4 µM

C=C(C)[C@@H]1CC[C@]2(C(=O)O)CC[C@]3(C)[C@H](CC[C@@H]4[C@@]5(C)CC[C@H](O)C(C)(C)[C@@H]5CC[C@]43C)[C@@H]12 [betulinic acid]
IC50 [5]: 12.8 to 36.4 µM
IC50 against lung A549 cell line (lung A549 cell line): 8.4 µg/mL (≈ 18.4 µM)
water solubility [6]: < 1 µM
IC50 [7]: 38.5 µM
